According to PMC8703466, “Unravelling the Interaction of Piperlongumine with the Nucleotide-Binding Domain of HSP70: A Spectroscopic and In Silico Study” (Pharmaceuticals, 2021):

Biological target: T1, nucleotide-binding domain of heat shock protein 70 (NBD/HSP70) (Homo sapiens, UniProt P0DMV8)
T1 construct: gene HSPA1A
Assay: intrinsic Trp90 fluorescence quenching titration (steady-state, IDF/Hill fit), supported by time-resolved fluorescence; CD
Details: read-out: intrinsic Trp90 fluorescence quenching titration (steady-state, IDF/Hill fit), s

T1 sequence (P0DMV8 1-382 limits assumed): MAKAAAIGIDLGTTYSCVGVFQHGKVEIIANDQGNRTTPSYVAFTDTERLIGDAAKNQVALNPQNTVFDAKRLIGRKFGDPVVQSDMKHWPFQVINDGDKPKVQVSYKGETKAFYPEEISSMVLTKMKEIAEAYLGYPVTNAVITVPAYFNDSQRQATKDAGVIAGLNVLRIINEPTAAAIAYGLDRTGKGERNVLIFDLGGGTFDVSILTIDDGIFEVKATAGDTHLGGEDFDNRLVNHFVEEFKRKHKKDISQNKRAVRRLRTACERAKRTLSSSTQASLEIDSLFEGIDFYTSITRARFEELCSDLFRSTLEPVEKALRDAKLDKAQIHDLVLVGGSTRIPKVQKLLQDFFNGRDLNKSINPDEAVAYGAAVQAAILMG

COc1cc(/C=C/C(=O)N2CCC=CC2=O)cc(OC)c1OC [PPL, Piperlongumine]
Kd: 15.9 µM
